# Experimental data reported in patent publication US20130190314A1, “DERIVATIVES OF 6-CYCLOAMINO-2-THIENYL-3-(PYRIDIN-4-YL)IMIDAZO[1,2-b]-PYRIDAZINE AND 6-CYCLOAMINO-2-FURANYL-3-(PYRIDIN-4-YL)IMIDAZO[1,2-b]-PYRIDAZINE, PREPARATION AND THERAPEUTIC USE THEREOF” (priority 2008, published 2013).
# How the values were obtained:
# [1] = biological target: T1, casein kinase 1 epsilon (CK1 epsilon) (Homo sapiens, UniProt P49674); test: Filter-plate assay of ATP-33P: inhibition of phosphorylation of casein by CK1 epsilon; type: biochemical; settings: casein substrate, 10 μM ATP, 2 hours at ambient temperature
# T1 construct: Invitrogen Corporation (alternative)
# T1 sequence (P49674 whole entry): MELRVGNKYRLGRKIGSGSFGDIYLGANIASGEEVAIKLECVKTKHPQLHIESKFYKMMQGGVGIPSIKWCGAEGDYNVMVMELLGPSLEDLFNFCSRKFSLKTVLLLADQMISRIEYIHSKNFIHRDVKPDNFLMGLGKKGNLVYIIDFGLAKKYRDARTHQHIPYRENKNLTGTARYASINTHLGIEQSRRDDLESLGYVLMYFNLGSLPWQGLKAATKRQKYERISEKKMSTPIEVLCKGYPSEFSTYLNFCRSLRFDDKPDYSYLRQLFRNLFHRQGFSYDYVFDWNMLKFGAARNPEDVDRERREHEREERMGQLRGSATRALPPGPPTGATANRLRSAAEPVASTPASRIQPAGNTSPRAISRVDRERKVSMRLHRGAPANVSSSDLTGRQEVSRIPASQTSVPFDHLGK
# Protocol: The capacity of the compounds of the invention to inhibit the phosphorylation of casein by casein kinase 1 epsilon and delta can be evaluated according to the procedure described in document US 2005/0131012.
# Filter-Plate Assay of ATP-^33P for the Screening of CK1 Epsilon Inhibitors:
# The effect of the compounds on inhibition of the phosphorylation of casein by the enzyme casein kinase 1 epsilon (CK1 epsilon) is measured using a casein assay with filtration of ATP-^33P in vitro.
# Casein kinase 1 epsilon (0.58 mg/ml) is obtained via fermentation and purification processes carried out according to methods well known to those skilled in the art, or may also be obtained from Invitrogen Corporation™ (human CK1 epsilon).
# The compounds are tested at five different concentrations so as to generate IC50 values, i.e. the concentration at which a compound is capable of inhibiting the enzymatic activity by 50%, or alternatively the % inhibition at a concentration of 10 micromolar.
# “U”-bottomed Falcon plates are prepared by placing 5 μl of solutions of the compounds according to the invention at concentrations of 10, 1, 0.1, 0.01 or 0.001 μM in various wells. The solutions of the compounds according to the invention at these various concentrations are prepared by diluting in a test buffer (50 mM Tris, pH 7.5, […], 2 mM DTT and 1 mM EGTA) a stock solution in DMSO at a concentration of 10 mM. Next, 5 μl of dephosphorylated casein are added to a final concentration of 0.2 μg/μl, 20 μl of CK1 epsilon are added to a final concentration of 3 ng/μl, and 20 μl of ATP-^33P are added to a final concentration of 0.02 μCi/μl mixed with cold ATP (10 μM final—approximately 2×10^6 CPM per well). The final total test volume per well is equal to 50 μl.
# The “U”-bottomed Falcon® test plate mentioned above is vortexed, and then incubated at ambient temperature for 2 hours. After 2 hours, the reaction is stopped by adding an ice-cold solution of 65 μl of cold ATP (2 mM) prepared in test buffer. 100 μl of the reaction mixture are then transferred from the “U”-bottomed Falcon®plate into Millipore MAPH filter plates, preimpregnated with 25 μl of ice-cold 100% TCA. […]
# The plates are left to dry overnight at ambient temperature. […] The radiation emitted by each well is then measured for 2 minutes in a Packard® Topcount NXT scintillation counter, in which the values of CPM/well are measured.
# The % inhibition of the capacity of the enzyme to phosphorylate the substrate (casein) is determined for each concentration of compound tested. These inhibition data expressed as percentages are used to calculate the IC50 value for each compound compared with the controls.
# The kinetic studies determined the KM value for ATP as being 21 μM in this test system.
# [2] = test system: Mper1-luc Rat-1 (P2C4) fibroblasts; test: Circadian cell assay: mPer1-promoter luciferase reporter, period prolongation; type: cell-based; settings: effective concentration that induced a 1-hour prolongation of the circadian period
# Protocol: Mper1-luc Rat-1 (P2C4) fibroblast cultures were prepared by dividing the cultures every 3-4 days (approximately 10-20% of confluence) on 150 cm^2 degassed polystyrene tissue culture flasks (Falcon® #35-5001) and maintained in growth medium [EMEM (Cellgro #10-010-CV); 10% foetal bovine serum (FBS; Gibco #16000-044); and 50 I.U./ml of penicillin-streptomycin (Cellgro #30-001-CI)] at 37° C. and under 5% CO2.
# Cells obtained from Rat-1 fibroblast cultures at 30-50% of confluence as described above were co-transfected with vectors containing the selectable marker for zeocin resistance for a stable transfection and a luciferase reporter gene controlled by the mPer-1 promoter. After 24 to 48 hours, the cultures were divided on 96-well plates and maintained in growth medium supplemented with 50-100 μg/ml of zeocin (Invitrogen® #45-0430) for 10-14 days. The zeocin-resistant stable transfectants were evaluated for the expression of the reporter gene by adding 100 μM luciferin (Promega® #E1603®) to the growth medium and by assaying the luciferase activity on a TopCount® scintillation counter (Packard Model #C384V00). The Rat-1 cell clones expressing both zeocin resistance and luciferase activity controlled by mPer1 were serum-shock synchronized with 50% horse serum [HS (Gibco® #16050-122)] and the activity of the circadian reporter was evaluated. The P2C4 clone of Mper1-luc Rat-1 fibroblasts was selected to test the compound.
# Mper1-luc Rat-1 (P2C4) fibroblasts at 40-50% of confluence, obtained according to the protocol described above, were plated out onto 96-well opaque tissue culture plates (Perkin Elmer® #6005680). The cultures are maintained in growth medium supplemented with 100 μg/mL of zeocin (Invitrogen #45-0430) until they have reached 100% of confluence (48-72 h). The cultures were then synchronized with 100 μl of synchronization medium [EMEM (Cellgro #10-010-CV); 100 I.U./ml of penicillin-streptomycin (Cellgro #30-001-C1); HS at 50% (Gibco #16050-122)] for 2 hours at 37° C. and under 5% CO2. After synchronization, the cultures were rinsed with 100 μl of EMEM (Cellgro #10-010-CV) for 10 minutes at ambient temperature. After rinsing, the medium was replaced with 300 μl of CO2 independent medium [CO2I (Gibco #18045-088); 2 mM L-glutamine (Cellgro #25-005-C1); 100 I.U./ml of penicillin-streptomycin (Cellgro #30-001-C1); 100 μM luciferin (Promega #E 1603)]. […]
# The period analysis was performed either by determining the interval between the relative light emission minima over several days or by Fourier transform. […] The data were analysed by adjusting a hyperbolic curve to the data expressed as change of period (Y-axis) as a function of the concentration of the test compound (X-axis) in the XLfit™ software, and the CE Delta (t+1 h) was interpolated from this curve.
Compound,melting point [°C],IC50 [1] [nM],CE Delta (t + 1 h) [2] [nM]
"c1csc(-c2nc3ccc(N4CCNCC4)nn3c2-c2ccncc2)c1 [Compound 1, 6-(piperazin-1-yl)-3-(pyridin-4-yl)-2-(thien-2-yl)imidazo[1,2-b]pyridazine]",217 to 220,,
"c1csc(-c2nc3ccc(N4C[C@H]5CNC[C@H]5C4)nn3c2-c2ccncc2)c1 [Compound 6, 6-[(cis)-hexahydropyrrolo[3,4-c]pyrrol-2(1H)-yl]-3-(pyridin-4-yl)-2-(thien-2-yl)imidazo[1,2-b]pyridazine]",179 to 183,,
"c1csc(-c2nc3ccc(N4CC5CCCNC5C4)nn3c2-c2ccncc2)c1 (stereo not drawn) [Compound 7, 6-(Octahydro-6H-pyrrolo[3,4-b]pyridin-6-yl)-3-(pyridin-4-yl)-2-(thien-2-yl)imidazo[1,2-b]pyridazine]",176 to 179,,
"c1csc(-c2nc3ccc(N4CCC5(CCCNC5)CC4)nn3c2-c2ccncc2)c1 [Compound 8, 9-(3-(pyridin-4-yl)-2-(thien-2-yl)imidazo[1,2-b]pyridazin-6-yl)-2,9-diazaspiro[5.5]undecane]",184 to 189,,
"C[C@@H]1CN(c2ccc3nc(-c4ccc(Cl)s4)c(-c4ccncc4)n3n2)C[C@H](C)N1 [Compound 13, 2-(5-chlorothien-2-yl)-6-[(cis)-3,5-dimethylpiperazin-1-yl]-3-(pyridin-4-yl)imidazo[1,2-b]pyridazine]",220 to 222,,
"CN1C[C@@H]2CN(c3ccc4nc(-c5ccc(Cl)s5)c(-c5ccncc5)n4n3)C[C@@H]2C1 [Compound 15, 2-(5-chlorothien-2-yl)-6-[(cis)-5-methylhexahydropyrrolo[3,4-c]pyrrol-2(1H)-yl]-3-(pyridin-4-yl)imidazo[1,2-b]pyridazine]",217 to 220,,
"Cc1ccc(-c2nc3ccc(N4CCN(CC(C)(C)O)CC4)nn3c2-c2ccncc2)o1 [Compound 29, 2-methyl-1-{4-[2-(5-methylfuran-2-yl)-3-pyridin-4-ylimidazo[1,2-b]pyridazin-6-yl]piperazin-1-yl}propan-2-ol]",147 to 149,,
"Cc1ccc(-c2nc3ccc(N4C[C@H]5CN(C)C[C@H]5C4)nn3c2-c2ccncc2)o1 [Compound 33, 2-(5-Methylfuran-2-yl)-6-[(cis)-5-methylhexahydropyrrolo[3,4-c]pyrrol-2(1H)-yl]-3-(pyridin-4-yl)imidazo[1,2-b]pyridazine]",178 to 181,,
CN1C[C@@H]2CN(c3ccc4nc(-c5ccoc5)c(-c5ccncc5)n4n3)C[C@@H]2C1 [Compound 34],,15,17

# More lines, main results first:
melting point [°C],IC50 [1] [nM],Compound,CE Delta (t + 1 h) [2] [nM]
177 to 179,25,"CN1CCN(c2ccc3nc(-c4ccsc4)c(-c4ccncc4)n3n2)CC1 [Compound 18, 6-(4-methylpiperazin-1-yl)-3-(pyridin-4-yl)-2-(thien-3-yl)imidazo[1,2-b]pyridazine]",74 to 83
178 to 180,,"CC(C)(O)CN1CCN(c2ccc3nc(-c4ccsc4)c(-c4ccncc4)n3n2)CC1 [Compound 19, 2-methyl-1-[4-(3-(pyridin-4-yl)-2-(thien-3-yl)imidazo[1,2-b]pyridazin-6-yl)piperazin-1-yl]propan-2-ol]",
133 to 168,,"c1cc(-c2c(-c3ccsc3)nc3ccc(N4CCC5(CCCNC5)CC4)nn23)ccn1 [Compound 22, 9-[3-(pyridin-4-yl)-2-(thien-3-yl)imidazo[1,2-b]pyridazin-6-yl]-2,9-diazaspiro[5.5]undecane]",
168 to 170,,"c1cc(-c2c(-c3ccsc3)nc3ccc(N4CCC(N5CCCC5)CC4)nn23)ccn1 [Compound 23, 3-(pyridin-4-yl)-6-(4-pyrrolidin-1-ylpiperidin-1-yl)-2-(thien-3-yl)imidazo[1,2-b]pyridazine]",
190 to 192,,"Cc1ccc(-c2nc3ccc(N4CCN(CCO)CC4)nn3c2-c2ccncc2)o1 [Compound 28, 2-{4-[2-(5-methylfuran-2-yl)-3-pyridin-4-ylimidazo[1,2-b]pyridazin-6-yl]piperazin-1-yl}ethanol]",
139 to 149,,"CC(C)(O)CN1CCN(c2ccc3nc(-c4ccoc4)c(-c4ccncc4)n3n2)CC1 [Compound 31, 1-[4-(2-furan-3-yl-3-pyridin-4-ylimidazo[1,2-b]pyridazin-6-yl)piperazin-1-yl]-2-methylpropan-2-ol]",
